Target: T1, Histone deacetylase 11 (Homo sapiens, UniProt Q96DB2)
T1 sequence (Q96DB2 whole entry): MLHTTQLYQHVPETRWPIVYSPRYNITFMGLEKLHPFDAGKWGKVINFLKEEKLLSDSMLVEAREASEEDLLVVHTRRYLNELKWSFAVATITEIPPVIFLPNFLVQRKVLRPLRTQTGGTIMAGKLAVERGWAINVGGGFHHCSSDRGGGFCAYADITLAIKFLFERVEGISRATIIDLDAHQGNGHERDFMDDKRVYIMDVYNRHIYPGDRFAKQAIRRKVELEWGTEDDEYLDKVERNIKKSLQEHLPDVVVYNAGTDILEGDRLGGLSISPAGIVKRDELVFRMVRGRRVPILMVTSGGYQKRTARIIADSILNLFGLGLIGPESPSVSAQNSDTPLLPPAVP
Experiment: HDAC Inhibition Assays: This example describes in vitro inhibition properties of exemplary HDAC11 inhibitors for various HDACs. HDAC inhibition assays were performed using an electrophoretic mobility shift assay at Nanosyn, Inc. (Santa Clara, Calif.). Full length human recombinant HDAC proteins were expressed in the baculoviral system and purified by affinity chromatography. A human recombinant HDAC3 was co-expressed with nuclear receptor corepressor (Ncor2). The following peptide substrates were used: FAM-RHKK(Ac)-NH2 for HDAC3, HDAC6 and HDAC8; FITC-H3K27(Ac)-NH2 for HDAC1, HDAC2 and HDAC10; FAM-RHKK(tri-fluor-Ac)-NH2 for HDAC4, HDAC5, HDAC7, HDAC9 and HDAC11. Reactions consisting of compound, enzyme, and substrate were performed in reaction buffer (comprised of 100 mM HEPES, pH7.5, 25 mM KCl, 0.1% bovine serum albumin, 0.01% Triton X-100) at 25° C. and quenched by the addition of termination buffer (100 mM HEPES, pH7.5, 0.01% Triton X-100, 0.05% SDS). The fluorescence intensity of the electrophoretically separated de-acetylated product and substrate peptide were measured and analyzed using the LabChip® 3000 microfluidic electrophoresis instrument (Perkin Elmer/Caliper Life Sciences). The IC50 values of inhibitors were determined by fitting the %-inhibition curves with 4 parameter dose-response model using XLfit 4 software (IDBS).

`N#Cc1cc2nc(Nc3cccc(C(=O)NO)c3)[nH]c2cc1C(F)(F)F` was tested, and the IC50 was less than 500 nM.
